Experimental data as given in US20090124599A1, “Fungicidal Mixtures” (Basf Aktiengesellschaft, priority 2004, published 2009).

Legend:
Botrytis cinerea = assay: Activity against the gray mold pathogen Botrytis cinerea in the microtiter test; format: cell-based; conditions: single active, day 7 after inoculation, absorption 405 nm
Phytophthora infestans = format: in vivo, Phytophthora infestans on tomato plants; conditions: 16 ppm; single active; sprayed 5 days before infection, assessed after 6 days; control 90% infection

Compound | Observed efficacy (%) (Botrytis cinerea; 0.063 ppm) | Observed efficacy (%) (Botrytis cinerea; 0.125 ppm) | Observed efficacy (%) (Botrytis cinerea; 0.25 ppm) | Observed efficacy (%) (Phytophthora infestans)
CO/C=C(/C(=O)OC)c1ccccc1CO/N=C(C)/C=C/c1ccc(Cl)cc1 [enestroburin (I), methyl 2-{2-[3-(4-chlorophenyl)-1-methylallylideneaminooxymethyl]phenyl}-3-methoxyacrylate] | 0% | 0% | 0% | –
O=[N+]([O-])c1cc(C(F)(F)F)c(Cl)c([N+](=O)[O-])c1Nc1ncc(C(F)(F)F)cc1Cl [fluazinam (II-1), 3-chloro-N-[3-chloro-2,6-dinitro-4-(trifluoromethyl)phenyl]-5-(trifluoromethyl)-2-pyridineamine] | 35% | – | – | 22%
Cc1cc(C)nc(Nc2ccccc2)n1 [pyrimethanil (II-9)] | – | 70% | – | –
